Assay results as given in publication PMC2438350, “Comparison of four different colorimetric and fluorometric cytotoxicity assays in a zebrafish liver cell line” (BMC Pharmacology, 2008).

Tests used:
Format in all cases: cell-based, zebrafish (Danio rerio)
ZFL cells [1] = experiment: LDH assay (released lactate dehydrogenase activity), cytotoxicity; details: for EC10 (10% loss of cell viability): 24 h exposure, 1% FBS, mean ± SD of three experiments; for EC50: read-out: EC50 (50% loss of cell viability), 24 h exposure, 1% FBS, mean ± SD of three experiments
Description: (§1) Each compound was dissolved in dimethyl sulfoxide (DMSO) and diluted in a way that all stock solutions were 200 times concentrated compared to the final test concentrations. Concentration ranges were 30 pM-1.97 μM for BaP, 5 nM-5 μM for Flus, 5 nM-11 μM for Tam, and 0.2–43 μM for 4-OHT, which is in the range of in vivo studies with waterborne exposure of zebrafish for BaP, Tam, and 4-OHT [20-22, 29]. For Flusilazole, no studies on fish are available.
(§2) For finding the optimal biological test conditions, in the beginning different cell densities were applied using two-fold dilution series in the range of 780–100,000 cells/well and cell viability tests were performed after 24 h. […] Thus, cells were plated in 96 well flat-bottom plates at an initial cell density of 25,000 cells/well in 200 μL of medium and allowed to settle for 24 h. In parallel, wells containing only medium without cells were prepared and used later on for background correction. After the pre-incubation period, for each test compound and each concentration, 1 μL of the DMSO stock solutions was added so that the final DMSO content was 0.5%. All tests were performed at least three times and each time in triplicate.
A second set of cells was exposed to the test compounds for the LDH assay, which was performed using the Cytotoxicity Detection Kit LDH (Roche). For this assay, a positive control, leading to 100% cytotoxicity by lysing the cells completely, was included in the assay. The positive control was 2% Triton X-100 solution in the assay medium, as proposed by the manufacturer. After pre-incubation of the cells, before addition of the test compounds, the growth medium was exchanged from medium containing 5% FBS to medium containing only 1% FBS. Then, test compounds in DMSO were dosed and plates incubated as for the other assays for 24 h. For testing the released LDH activity, 100 μL of culture medium were transferred to a new 96 well plate. 100 μL of the reaction solution from the kit, containing the detection dye and the catalyst were then added and absorption was measured after 30 min at 490 nm with 655 nm as reference wavelength in an ELISA reader (Model 680, Biorad). As for the other assays, background values from wells without cells were subtracted and average values for the triplicates calculated. Cytotoxicity was then calculated according to the following equation: Cytotoxicity (%) = (experimental value - DMSO control)/(positive control - DMSO control) × 100.
(§3) For each single assay, data were evaluated separately for three independent experiments. Dose-response curves were fitted using a nonlinear-regression sigmoidal dose-response curve model provided in the GraphPad Prism software (GraphPad software, Inc., San Diego, USA). EC10 and EC50 values were derived from these fitted curves for the single experiments. Final EC-values (Table 1) were calculated as average of three independent experiments with the standard deviation of the mean indicating the variation. Data from the different assays were statistically compared using One way ANOVA analysis with Tukey's test as post-ANOVA analysis (p < 0.05).

ZFL cells [2] = experiment: MTT assay, cytotoxicity; details: for EC10 (10% loss of cell viability): 24 h exposure, mean ± SD of three experiments; for EC50: read-out: EC50 (50% loss of cell viability), 24 h exposure, mean ± SD of three experiments
Description: as §1, §2
The MTT assay was performed using the cell proliferation kit I MTT (Roche) according to the manufacturer's protocol. In brief, after 24 h of incubation with the test compounds, 100 μL of medium were removed from each well. Then, 10 μL of the MTT solution were added and plates incubated for 4 h at 28°C. Since the manufacturer recommends incubation at 37°C and ZFL cells have to be incubated at 28°C, we tested different incubation times with MTT (2, 4, and 6 h) to establish optimized conditions. […] After the incubation with MTT, the solubilization solution was added and plates incubated over night. The next day, absorption of the produced formazan was measured at 570 nm with 680 nm as reference wavelength using a microplate reader (Infinite 200, Tecan). For data evaluation, background and reference wavelength corrected absorption values were averaged for the triplicates and expressed as "% cytotoxicity" referring to the untreated control containing only the solvent DMSO.
as §3

ZFL cells [3] = experiment: alamarBlue (AB) assay, cytotoxicity; details: for EC10 (10% loss of cell viability): 24 h exposure, mean ± SD of three experiments; for EC50: read-out: EC50 (50% loss of cell viability), 24 h exposure, mean ± SD of three experiments
Description: as §1, §2
(§4) The fluorogenic indicator dyes alamarBlue® (AB) (BioSource, Invitrogen) and CFDA-AM (5-carboxyfluorescein diacetate acetoxymethyl ester; Molecular Probes, Invitrogen) were used in combination on a third set of cells, since it was shown before that their fluorescent products can be detected at different non-interfering wavelengths. AB was obtained as ready-to-use stock solution, which had to be diluted 200 times to obtain the working solution. CFDA-AM powder was dissolved in DMSO to a stock solution of 4 mM, which was diluted 1000 times to reach the 4 μM working solution. […] For this purpose, cells were exposed to the dyes dissolved in culture medium without FBS or in Earle's-G medium. […] The AB/CFDA-AM assay was then performed according to [10]. In brief, after 24 h of incubation with the test compounds, the medium was aspirated off completely and 100 μL/well of the alamarBlue/CFDA-AM working solution were added. After 30 min of incubation, fluorescence was measured at 530 nm excitation/590 nm emission for AB and 485 nm/535 nm for CFDA-AM, respectively, using a fluorescence plate reader (Infinite 200, Tecan). For data evaluation, average values of triplicates were calculated after background correction and all average values for the treatments referred to the DMSO control, in order to express data as "% cytotoxicity".
as §3

ZFL cells [4] = experiment: CFDA-AM assay, cytotoxicity; details: for EC10 (10% loss of cell viability): 24 h exposure, mean ± SD of three experiments; for EC50: read-out: EC50 (50% loss of cell viability), 24 h exposure, mean ± SD of three experiments
Description: as §1, §2, §4, §3

Compound | EC10 (10% loss of cell viability) (ZFL cells [1]) [µM] | EC50 (ZFL cells [1]) [µM] | EC10 (10% loss of cell viability) (ZFL cells [2]) [µM] | EC50 (ZFL cells [2]) [µM] | EC10 (10% loss of cell viability) (ZFL cells [3]) [µM] | EC50 (ZFL cells [3]) [µM] | EC10 (10% loss of cell viability) (ZFL cells [4]) [µM] | EC50 (ZFL cells [4]) [µM] | EC50 (ZFL cells [1]; Danio rerio) [µM] | EC50 (ZFL cells [2]; Danio rerio) [µM] | EC50 (ZFL cells [3]; Danio rerio) [µM] | EC50 (ZFL cells [4]; Danio rerio) [µM]
CC/C(=C(\c1ccc(O)cc1)c1ccc(OCCN(C)C)cc1)c1ccccc1.Cl [4-OH-Tamoxifen, trans-4-Hydroxy-Tamoxifen] | 0.73 ± 0.55 | 1.62 ± 0.01 | 1.49 ± 0.82 | 1.78 ± 0.4 | 0.79 ± 0.40 | 1.17 ± 0.24 | 1.08 ± 0.62 | 1.73 ± 0.67 | – | – | – | –
C[Si](Cn1cncn1)(c1ccc(F)cc1)c1ccc(F)cc1 [Flusilazole] | 2.28 ± 3.12 | – | 11.29 ± 5.88 | – | 16.13 ± 11.44 | – | 6.49 ± 1.08 | – | 17.4 ± 14.5 | 18.4 ± 14.1 | 26.4 ± 7.3 | 16.7 ± 4.76
CC/C(=C(\c1ccccc1)c1ccc(OCCN(C)C)cc1)c1ccccc1 [Tamoxifen] | 0.61 ± 0.67 | – | 1.39 ± 0.77 | – | 1.37 ± 0.33 | – | 2.52 ± 2.14 | – | – | – | – | –
